In PubChem BioAssay (NCI) one finds GI50 and TGI data, which are given here for 12 compounds.

Among the test systems are NCI-H23 lung; RXF 393 renal; 786-0 renal; PC-3 prostate; MDA-MB-231 breast; CCRF-CEM leukemia; SNB-75 CNS; ACHN renal; HOP-62 NSCLC; HL-60(TB) leukemia.
Holding throughout (assay): inhibition of tumour cell growth, NCI panel, 48 h

Values joined by “and” are separate entries in the source; they are usually repeats but may differ in a detail not shown here. Equal values may be shown once.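 1) Cells in 96-well plates. 2) Compound, 48 h, 5 concentrations. 3) Linear interpolation between surrounding doses. 4) Unreached endpoint = highest concentration. GI50: concentration for 50% inhibition of growth. TGI marks complete inhibition of growth.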 Bounds are passed on as bounds.

Take `Nc1nn(C(=O)Nc2ccc(Cc3ccccc3)cc2)c2ccc(Cl)cc12`: the GI50 with NCI-H23 lung was 5.72 µM; in the experiment on RXF 393 renal it was 15.1 µM; in the experiment with 786-0 renal it was 4.59 µM; in the experiment on PC-3 prostate, 2.87 µM; in the experiment with MDA-MB-231 breast, 9.48 µM; in the experiment with CCRF-CEM leukemia, 3.08 µM. Besides, the GI50 with SNB-75 CNS was 15 µM; in the experiment on ACHN renal, 0.0646 µM; in the experiment with HOP-62 NSCLC, 1.33 µM; in the experiment on HL-60(TB) leukemia, 6.57 µM. In addition, the TGI in the experiment on NCI-H23 lung was greater than 82.7 µM; in the experiment with RXF 393 renal it was 34.1 µM; in the experiment with 786-0 renal it was 28.7 µM; in the experiment on PC-3 prostate it was greater than 66.5 µM; in the experiment with MDA-MB-231 breast, 50.2 µM; in the experiment with CCRF-CEM leukemia it was greater than 58.7 µM. Further, the TGI in the experiment on SNB-75 CNS turned out to be 35.2 µM; in the experiment on ACHN renal it was 26.4 µM; in the experiment with HOP-62 NSCLC it was 14.8 µM; in the experiment on HL-60(TB) leukemia, 44.6 µM.

Turning to `O=c1oc2c(Br)c(O)c(Br)cc2c2ccccc12`, the TGI was 38.6 µM with NCI-H23 lung; greater than 100 µM in the experiment with RXF 393 renal; greater than 100 µM with 786-0 renal; 50.4 µM in the experiment with PC-3 prostate; 66.1 µM with MDA-MB-231 breast; 65.4 µM with CCRF-CEM leukemia. Further, the TGI in the experiment with SNB-75 CNS is 78.9 µM; with ACHN renal, greater than 100 µM; in the experiment on HOP-62 NSCLC it was greater than 100 µM; in the experiment with HL-60(TB) leukemia it was 52.3 µM.

In the case of `COc1ccc(Nc2nc(NCc3ccccc3)c3ccccc3n2)cc1`, the GI50 with NCI-H23 lung was 3.02 µM; in the experiment with 786-0 renal, 6.31 µM; with PC-3 prostate, 2.87 µM; in the experiment on MDA-MB-231 breast, 4.3 µM; in the experiment with CCRF-CEM leukemia it was 2.76 µM; in the experiment with SNB-75 CNS it was 7.98 µM. The GI50 with ACHN renal is 3.38 µM; with HOP-62 NSCLC, 10.1 µM; with HL-60(TB) leukemia, 2.04 µM. For the same compound, the TGI is 13.7 µM with NCI-H23 lung; 20.9 µM with 786-0 renal; 12.6 µM in the experiment on PC-3 prostate; 16.9 µM in the experiment on MDA-MB-231 breast; 9.19 µM with CCRF-CEM leukemia; 22.4 µM in the experiment on SNB-75 CNS. The TGI was determined as 14.1 µM in the experiment with ACHN renal, 22.4 µM in the experiment on HOP-62 NSCLC and 4.2 µM in the experiment on HL-60(TB) leukemia.

On to `O=C1C(CN(Cc2ccccc2)Cc2ccccc2)CCCC1CN(Cc1ccccc1)Cc1ccccc1` (stereo unspecified), for which the GI50 was 32.2 µM and > 100 µM in the experiment on NCI-H23 lung; 20.1 µM and > 100 µM with RXF 393 renal; 16.8 µM and 55.1 µM in the experiment with 786-0 renal; > 100 µM and 41.5 µM in the experiment with PC-3 prostate; > 100 µM and 38.3 µM in the experiment on MDA-MB-231 breast; 31.1 µM and 76.2 µM in the experiment with SNB-75 CNS. For the same compound, in the experiment with ACHN renal, the GI50 was 15.9 µM and > 85.3 µM. Also, the TGI in the experiment with NCI-H23 lung is 50 µM and > 100 µM; with RXF 393 renal, greater than 100 µM; in the experiment with 786-0 renal it was 32.9 µM and > 100 µM; with PC-3 prostate it was greater than 100 µM; in the experiment with MDA-MB-231 breast, greater than 100 µM; in the experiment with CCRF-CEM leukemia, 14.2 µM and > 100 µM. Besides, the TGI in the experiment with SNB-75 CNS is 49.1 µM and > 100 µM; with ACHN renal it was 25.7 µM and > 100 µM; with HOP-62 NSCLC it was greater than 100 µM; in the experiment on HL-60(TB) leukemia, 12 µM and > 100 µM.

For the compound `O=C(O)c1ccc([N+](=O)[O-])c(P(=O)(O)O)c1`, the TGI in the experiment on NCI-H23 lung, in the experiment on RXF 393 renal, in the experiment with 786-0 renal, in the experiment on PC-3 prostate, with MDA-MB-231 breast and in the experiment on ACHN renal was greater than 100 µM throughout. Besides, the TGI in the experiment with HOP-62 NSCLC and with HL-60(TB) leukemia was greater than 100 µM throughout.

On to `NC(=O)Cc1ccccc1Oc1nccc(-c2c(-c3ccc(F)cc3)ncn2C2CCNCC2)n1`, for which the GI50 with NCI-H23 lung, in the experiment on RXF 393 renal, in the experiment on 786-0 renal, in the experiment on PC-3 prostate, in the experiment on MDA-MB-231 breast and in the experiment with CCRF-CEM leukemia was greater than 25 µM in each case. The GI50 with SNB-75 CNS was greater than 19.1 µM; in the experiment with ACHN renal, greater than 25 µM; in the experiment with HOP-62 NSCLC, greater than 25 µM; in the experiment on HL-60(TB) leukemia, greater than 25 µM. Also, the TGI in the experiment with NCI-H23 lung, in the experiment with RXF 393 renal, in the experiment with 786-0 renal, in the experiment with PC-3 prostate, with MDA-MB-231 breast and with CCRF-CEM leukemia was greater than 25 µM throughout. The TGI in the experiment on SNB-75 CNS, in the experiment on ACHN renal, with HOP-62 NSCLC and with HL-60(TB) leukemia was greater than 25 µM each time.

In the case of `O=C(Nc1cccnc1)c1cccs1`, the GI50 in the experiment with NCI-H23 lung was 4.84 µM; in the experiment on RXF 393 renal it was 7.36 µM; in the experiment on 786-0 renal it was 6.77 µM; with PC-3 prostate, greater than 100 µM; in the experiment on MDA-MB-231 breast, 81.3 µM; in the experiment on SNB-75 CNS, 4.77 µM. The results for the GI50 with ACHN renal, with HOP-62 NSCLC and in the experiment on HL-60(TB) leukemia were 8.98 µM, 42.2 µM and 48.1 µM, respectively. The TGI with NCI-H23 lung, in the experiment with RXF 393 renal, in the experiment on 786-0 renal, in the experiment on PC-3 prostate, in the experiment with MDA-MB-231 breast and with SNB-75 CNS was greater than 100 µM in each case. For the same compound, the TGI in the experiment on ACHN renal, in the experiment with HOP-62 NSCLC and with HL-60(TB) leukemia was greater than 100 µM in each case.

As to `CCCCC(SC(=S)N(CC)CC)C(=O)Nc1nc(CC(=O)OCC)cs1` (stereo unspecified), the GI50 with RXF 393 renal is 32.5 µM; in the experiment with 786-0 renal, greater than 100 µM; with PC-3 prostate, 0.776 µM; in the experiment on MDA-MB-231 breast, 47.8 µM; in the experiment with SNB-75 CNS, 67 µM; with ACHN renal, 67.3 µM. In addition, the GI50 in the experiment with HOP-62 NSCLC is greater than 100 µM; in the experiment on HL-60(TB) leukemia, 28.6 µM. For the same compound, the TGI with RXF 393 renal, with 786-0 renal, with PC-3 prostate, in the experiment on MDA-MB-231 breast, in the experiment on SNB-75 CNS and in the experiment with ACHN renal was greater than 100 µM in each case. Moreover, the results for the TGI in the experiment with HOP-62 NSCLC and with HL-60(TB) leukemia were greater than 100 µM and 98.5 µM, respectively.

As to `O=C(/C=C/c1ccccc1O)c1ccccc1`, the GI50 in the experiment with NCI-H23 lung is 9.63 µM; in the experiment on RXF 393 renal, 10.3 µM; in the experiment with 786-0 renal, 14.4 µM; with PC-3 prostate it was 7.13 µM; with MDA-MB-231 breast, 12.8 µM; in the experiment with CCRF-CEM leukemia, 2.64 µM. In addition, the GI50 in the experiment on ACHN renal is 11 µM; in the experiment on HOP-62 NSCLC it was 17.2 µM; in the experiment with HL-60(TB) leukemia, 1.52 µM. Further, the TGI with NCI-H23 lung turned out to be 23.2 µM; with RXF 393 renal, 23.4 µM; in the experiment with 786-0 renal, 29.7 µM; in the experiment on PC-3 prostate it was 41.6 µM; in the experiment with MDA-MB-231 breast, 29.9 µM; in the experiment with CCRF-CEM leukemia, 8.19 µM. In addition, the TGI with ACHN renal is 24.2 µM; in the experiment on HOP-62 NSCLC, 52.7 µM; in the experiment on HL-60(TB) leukemia, 11.1 µM.

For `Nc1ccn(C2OC(CO[P+](=O)OC3C(CO[P+](=O)OC4C(CO[P+](=O)OC5C(CO[P+](=O)OC6C(CO[P+](=O)OC7C(CO[P+](=O)OC8C(CO[P+](=O)OC9C(CO[P+](=O)OC%10C(CO[P+](=O)OC%11C(CO)OC(n%12ccc(N)nc%12=O)C%11(F)F)OC(n%11ccc(N)nc%11=O)C%10(F)F)OC(n%10ccc(N)nc%10=O)C9(F)F)OC(n9ccc(N)nc9=O)C8(F)F)OC(n8ccc(N)nc8=O)C7(F)F)OC(n7ccc(N)nc7=O)C6(F)F)OC(n6ccc(N)nc6=O)C5(F)F)OC(n5ccc(N)nc5=O)C4(F)F)OC(n4ccc(N)nc4=O)C3(F)F)C(O)C2(F)F)c(=O)n1` (stereo unspecified), the GI50 was 0.0618 µM in the experiment with RXF 393 renal; 0.0605 µM with 786-0 renal; 80.5 µM in the experiment on PC-3 prostate; 0.522 µM in the experiment with MDA-MB-231 breast; 0.0175 µM in the experiment on HOP-62 NSCLC. Further, the TGI in the experiment on RXF 393 renal was greater than 100 µM; in the experiment on 786-0 renal it was greater than 100 µM; in the experiment with PC-3 prostate, greater than 100 µM; in the experiment on MDA-MB-231 breast it was greater than 100 µM; in the experiment on HL-60(TB) leukemia it was 0.18 µM.

On to `C[CH2][Sn]1([CH2]C)[O]C2C(O)OC(CO)C(O)C2[O]1` (stereo unspecified), for which the GI50 was 24.2 µM with NCI-H23 lung; 27.6 µM with RXF 393 renal; 23 µM with 786-0 renal; greater than 100 µM in the experiment on PC-3 prostate; 14.4 µM in the experiment with MDA-MB-231 breast; greater than 100 µM in the experiment on SNB-75 CNS. Also, the GI50 is 40.3 µM with ACHN renal, greater than 100 µM in the experiment on HOP-62 NSCLC and 16.5 µM in the experiment on HL-60(TB) leukemia. In addition, the TGI in the experiment with NCI-H23 lung was 93 µM; in the experiment with RXF 393 renal, greater than 100 µM; in the experiment with 786-0 renal, 68.1 µM; with PC-3 prostate, greater than 100 µM; with MDA-MB-231 breast, 28.6 µM; in the experiment with SNB-75 CNS it was greater than 100 µM. For the same compound, the TGI is greater than 100 µM with ACHN renal, greater than 100 µM in the experiment on HOP-62 NSCLC and 39.1 µM in the experiment with HL-60(TB) leukemia.

For `COc1cc(-c2nn(C)nc2-c2cc3ccccc3s2)cc(OC)c1OC`, the GI50 is 0.392 µM in the experiment on NCI-H23 lung; 0.286 µM in the experiment with RXF 393 renal; 0.312 µM with 786-0 renal; 0.0779 µM in the experiment on PC-3 prostate; 1.6 µM with MDA-MB-231 breast; 0.22 µM in the experiment on CCRF-CEM leukemia. The GI50 in the experiment on ACHN renal was 0.293 µM; with HOP-62 NSCLC it was 0.553 µM; in the experiment with HL-60(TB) leukemia, 0.0488 µM. In addition, the TGI is greater than 100 µM in the experiment with NCI-H23 lung; 46.9 µM in the experiment with RXF 393 renal; greater than 100 µM in the experiment on 786-0 renal; greater than 100 µM in the experiment with PC-3 prostate; greater than 100 µM with MDA-MB-231 breast; greater than 100 µM with CCRF-CEM leukemia. Besides, the TGI is greater than 100 µM in the experiment with ACHN renal, greater than 100 µM with HOP-62 NSCLC and 1.07 µM with HL-60(TB) leukemia.
